pIC50: −log10 of the molar value.
Key:
COX I = biological target: T1, COX I (Homo sapiens, UniProt P23219); assay: Inhibition of COX I in vitro (radiometric assay, 14C arachidonic acid, partially purified enzyme); format: biochemical; conditions: partially purified COX I, 20 micromolar arachidonic acid, 10 min preincubation, room temperature; read-out: COX I IC50
T1 construct: made in house; baculovirus-infected insect cells by own knowledge of the cited Barnett et al. 1994
Description: (§1) The COX I and COX II inhibitory activity of compounds of this invention in vitro was determined using partially purified COX I and COX II enzymes, prepared as described in J. Barnett et al., Biochim. Biophys. Acta, 1209:130--139 (1994).
(§2) COX I and COX II samples were diluted with Tris-HCl buffer (50 mM Tris-HCl pH 7.9) containing 2 mM EDTA and 10% glycerol and reconstituted by incubating first with 2 mM phenol for 5 minutes and then with 1 micromolar hematin for an additional 5 minutes. 125 μl of the reconstituted COX I or COX II enzyme were preincubated for 10 minutes at room temperature in a shaking water bath with the compounds of the invention dissolved in 2-15 μl of DMSO or the carrier vehicles (control samples). The enzyme reaction was initiated by adding 25 μl of 1-[14C] arachidonic acid (80,000-100,000 cpm/tube; 20 micromolar final concentration) and the reaction was allowed to continue for an additional 45 seconds. The reaction was terminated by adding 100 μl of 2N HCl and 750 μl water. An aliquot (950 μl) of the reaction mixture was loaded onto a 1 ml C18 Sep-Pak column (J. T. Baker, Phillipsburg, N.J.) which had been previously washed with 2-3 ml methanol and equilibrated with 5-6 ml distilled water. Oxygenated products were quantitatively eluted with 3 ml of acetonitrile/water/acetic acid (50:50:0.1, v/v) and the radioactivity in the eluate determined in a scintillation counter.

COX II = biological target: T2, COX II (Homo sapiens, UniProt P35354); assay: Inhibition of COX II in vitro (radiometric assay, 14C arachidonic acid, partially purified enzyme); format: biochemical; conditions: partially purified COX II, 20 micromolar arachidonic acid, 10 min preincubation, room temperature; read-out: COX II IC50
T2 construct: made in house; baculovirus-infected insect cells by own knowledge of the cited Barnett et al. 1994
T2 sequence (P35354 18-604): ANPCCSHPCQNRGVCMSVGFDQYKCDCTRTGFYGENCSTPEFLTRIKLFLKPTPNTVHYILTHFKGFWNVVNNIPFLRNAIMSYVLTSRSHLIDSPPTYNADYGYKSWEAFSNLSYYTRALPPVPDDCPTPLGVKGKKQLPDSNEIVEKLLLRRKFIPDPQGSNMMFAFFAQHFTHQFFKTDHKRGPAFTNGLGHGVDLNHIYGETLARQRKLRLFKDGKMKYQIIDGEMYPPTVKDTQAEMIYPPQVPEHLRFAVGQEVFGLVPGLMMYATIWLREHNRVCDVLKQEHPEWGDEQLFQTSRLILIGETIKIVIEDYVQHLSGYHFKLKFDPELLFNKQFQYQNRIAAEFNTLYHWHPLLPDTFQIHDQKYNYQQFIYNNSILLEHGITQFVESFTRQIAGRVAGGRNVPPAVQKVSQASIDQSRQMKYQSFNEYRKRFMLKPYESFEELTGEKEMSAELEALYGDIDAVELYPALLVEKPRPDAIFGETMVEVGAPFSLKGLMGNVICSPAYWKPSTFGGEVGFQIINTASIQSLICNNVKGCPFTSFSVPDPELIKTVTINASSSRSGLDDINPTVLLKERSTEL
Description: as §1, §2

T1 sequence (P23219 24-599): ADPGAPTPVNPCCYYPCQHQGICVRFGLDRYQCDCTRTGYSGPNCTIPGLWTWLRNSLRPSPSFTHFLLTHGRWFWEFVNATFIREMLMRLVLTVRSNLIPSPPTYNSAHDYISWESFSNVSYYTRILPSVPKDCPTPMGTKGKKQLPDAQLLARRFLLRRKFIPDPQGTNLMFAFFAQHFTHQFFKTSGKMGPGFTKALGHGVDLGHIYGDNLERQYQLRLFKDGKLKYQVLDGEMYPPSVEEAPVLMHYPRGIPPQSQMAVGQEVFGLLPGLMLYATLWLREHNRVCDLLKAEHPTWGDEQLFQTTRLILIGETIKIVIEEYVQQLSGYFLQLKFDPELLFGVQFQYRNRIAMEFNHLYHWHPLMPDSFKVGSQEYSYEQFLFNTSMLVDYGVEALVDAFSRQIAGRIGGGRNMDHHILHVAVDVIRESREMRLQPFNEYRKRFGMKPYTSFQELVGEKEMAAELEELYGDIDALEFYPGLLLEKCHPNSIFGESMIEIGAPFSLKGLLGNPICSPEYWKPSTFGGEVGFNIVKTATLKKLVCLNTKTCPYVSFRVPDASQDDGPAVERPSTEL

pIC50 (COX I)	pIC50 (COX II)	Compound
4.96	6.82	Cc1cc(Cc2ccc(NS(C)(=O)=O)cc2)n(C)c1C(=O)c1ccc(Cl)cc1 [compound 1, N-{4-[5-(4-Chlorobenzoyl)-1,4-dimethyl-1H-pyrrol-2-ylmethyl]phenyl}methane-sulfonamide]
5.12	6.29	Cc1cc(C(C)c2ccc(NS(C)(=O)=O)cc2)n(C)c1C(=O)c1ccc(Cl)cc1 (stereo not shown) [compound 11, N-{4-[5-(4-Chlorobenzoyl)-1,4-dimethyl-1H-pyrrol-2-ylethan-1-yl]phenyl}-methanesulfonamide]
3.38	7.20	Cc1cc(Cc2c(F)cc(NS(C)(=O)=O)cc2F)n(C)c1C(=O)c1ccc(Cl)cc1 [compound 27, N-{3,5-Difluoro-4-[5-(4-chlorobenzoyl)-1,4-dimethyl-1H-pyrrol-2-ylmethyl]-phenyl}-methanesulfonamide]
4.48	6.72	Cc1ccc(C(=O)c2ccc(Cc3ccc(NS(C)(=O)=O)cc3)n2C)cc1 [compound 28, N-{4-[5-(4-Methylbenzoyl)-1-methyl-1H-pyrrol-2-ylmethyl]phenyl}methanesulfonamide]
5.41	7.35	Cc1ccc(C(=O)c2ccc(Cc3ccc(NS(C)(=O)=O)cc3Cl)n2C)cc1 [compound 31, N-{3-Chloro-4-[5-(4-methylbenzoyl)-1-methyl-1H-pyrrol-2-ylmethyl]phenyl}-methanesulfonamide]
6.57	7.19	Cc1ccc(C(=O)c2c(C)cc(Cc3ccc(NS(C)(=O)=O)cc3F)n2C)cc1 [compound 38, N-{3-Fluoro-4-[5-(4-methylbenzoyl)-1,4-dimethyl-1H-pyrrol-2-ylmethyl]phenyl}-methanesulfonamide]
6.80	7.55	Cc1cc(Cc2ccc(NS(C)(=O)=O)cc2F)n(C)c1C(=O)c1ccccc1 [compound 60, N-{3-Fluoro-4-[5-benzoyl-1,4-dimethyl-1H-pyrrol-2-ylmethyl]phenyl}methanesulfonamide]
7.46	6.48	Cc1cc(Cc2ccc(NS(=O)(=O)CCO)cc2F)n(C)c1C(=O)c1ccccc1 [compound 63, N-{3-Fluoro-4-[5-benzoyl-1,4-dimethyl-1H-pyrrol-2-ylmethyl]phenyl}-2-(hydroxy)-ethanesulfonamide]
5.16	6.92	Cn1c(Cc2ccc(NS(=O)(=O)CCO)cc2F)ccc1C(=O)c1ccccc1 [compound 66, N-{3-Fluoro-4-[5-benzoyl-1-methyl-1H-pyrrol-2-ylmethyl]phenyl}-2-(hydroxy)-ethanesulfonamide]
6.07	7.14	CCS(=O)(=O)Nc1ccc(Cc2cc(C)c(C(=O)c3ccccc3)n2C)c(F)c1 [compound 68, N-{3-Fluoro-4-[5-benzoyl-1,4-dimethyl-1H-pyrrol-2-ylmethyl]phenyl}ethanesulfonamide]
4.42	6.80	Cc1ccccc1C(=O)c1ccc(Cc2ccc(NS(C)(=O)=O)cc2F)n1C [compound 71, N-{3-Fluoro-4-[5-(2-methylbenzoyl)-1-methyl-1H-pyrrol-2-ylmethyl]phenyl}-methanesulfonamide]
3.58	6.15	COc1ccccc1C(=O)c1ccc(Cc2ccc(NS(C)(=O)=O)cc2F)n1C [compound 72, N-{3-Fluoro-4-[5-(2-methoxybenzoyl)-1-methyl-1H-pyrrol-2-ylmethyl]phenyl}-methanesulfonamide]
> 7.00	7.22	CN(C)c1ccc(C(=O)c2ccc(Cc3ccc(NS(C)(=O)=O)cc3F)n2C)cc1 [compound 88, N-{3-Fluoro-4-[5-(4-dimethylaminobenzoyl)-1-methyl-1H-pyrrol-2-ylmethyl]phenyl}-methanesulfonamide]
7.05	7.22	COc1ccc(C(=O)c2c(C)cc(Cc3ccc(NS(C)(=O)=O)cc3F)n2C)cc1 [compound 95, N-{3-Fluoro-4-[5-(4-methoxybenzoyl)-1,4-dimethyl-1H-pyrrol-2-ylmethyl]phenyl}-methanesulfonamide]
> 7.00	7.42	CCS(=O)(=O)Nc1ccc(Cc2cc(C)c(C(=O)c3ccc(OC)cc3)n2C)c(F)c1 [compound 97, N-{3-Fluoro-4-[5-(4-methoxybenzoyl)-1,4-dimethyl-1H-pyrrol-2-ylmethyl]phenyl}-ethanesulfonamide]
6.12	6.62	Cc1cc(Cc2ccc(NS(=O)(=O)CCO)cc2F)n(C)c1C(=O)c1ccc(F)cc1 [compound 104, N-{3-Fluoro-4-[5-(4-fluorobenzoyl)-1,4-dimethyl-1H-pyrrol-2-ylmethyl]phenyl}-2-(hydroxy)ethanesulfonamide]
6.02	7.15	COc1ccc(C(=O)c2ccc(Cc3ccc(NS(=O)(=O)CCO)cc3F)n2C)cc1 [compound 106, N-{3-Fluoro-4-[5-(4-methoxybenzoyl)-1-methyl-1H-pyrrol-2-ylmethyl]phenyl}-2-(hydroxy)ethanesulfonamide]
6.70	7.11	CS(=O)(=O)Nc1ccc(C2CCn3c(C(=O)c4ccccc4)ccc32)c(Cl)c1 (stereo not shown) [compound 131, N-{3-Chloro-4-[5-Benzoyl-1,2-dihydro-3H-pyrrolizin-1-yl]phenyl}methanesulfonamide]
7.35	7.24	COc1ccc(C(=O)c2ccc3n2CCC3c2ccc(NS(=O)(=O)CCO)cc2Cl)cc1 (stereo not shown) [compound 133, N-{3-Chloro-4-[5-(4-methoxybenzoyl)-1,2-dihydro-3H-pyrrolizin-1-yl]phenyl}-2(hydroxy)ethanesulfonamide]
5.41	7.52	Cc1cc(Cc2ccc(NS(N)(=O)=O)cc2)n(C)c1C(=O)c1ccc(Cl)cc1 [compound 141, 1-{4-[5-(4-Chlorobenzoyl)-1,4-dimethyl-1H-pyrrol-2-ylmethyl]phenyl}sulfamide]
6.22	7.00	Cc1cc(Cc2ccc(NS(N)(=O)=O)cc2C#N)n(C)c1C(=O)c1ccc(Cl)cc1 [compound 147, 1-{3-Cyano-4-[5-(4-chlorobenzoyl)-1,4-dimethyl-1H-pyrrol-2-ylmethyl]phenyl}sulfamide]
4.47	7.27	Cc1ccc(C(=O)c2ccc(Cc3ccc(NS(N)(=O)=O)cc3F)n2C)cc1 [compound 154, 1-{3-Fluoro-4-[5-(4-methylbenzoyl)-1-methyl-1H-pyrrol-2-ylmethyl]phenyl}sulfamide]
4.37	7.05	CNS(=O)(=O)Nc1ccc(Cc2ccc(C(=O)c3ccc(C)cc3C)n2C)c(F)c1 [compound 172, 1-{3-Fluoro-4-[5-(2,4-dimethylbenzoyl)-1-methyl-1H-pyrrol-2-ylmethyl]phenyl}-3-methylsulfamide]
6.10	6.52	Cc1cc(Cc2ccc(NS(N)(=O)=O)cc2)n(C)c1C(=O)c1ccccc1 [compound 177, 1-{4-[5-benzoyl-1,4-dimethyl-1H-pyrrol-2-ylmethyl]phenyl}sulfamide]
5.30	7.40	COc1ccc(C(=O)c2ccc(Cc3ccc(NS(N)(=O)=O)cc3F)n2C)cc1 [compound 196, 1-{3-Fluoro-4-[5-(4-Methoxybenzoyl)-1-methyl-1H-pyrrol-2-ylmethyl]phenyl}sulfamide]
> 7.00	7.15	COc1ccc(C(=O)c2c(C)cc(Cc3ccc(NS(N)(=O)=O)cc3F)n2C)cc1 [compound 197, 1-{3-Fluoro-4-[5-(4-Methoxybenzoyl)-1,4-dimethyl-1H-pyrrol-2-ylmethyl]phenyl}-sulfamide]
5.49	7.30	COc1ccc(C(=O)c2ccc(Cc3ccc(NS(N)(=O)=O)cc3C#N)n2C)cc1 [compound 202, 1-{3-Cyano-4-[5-(4-methoxybenzoyl)-1-methyl-1H-pyrrol-2-ylmethyl]phenyl}-sulfamide]
–	4.11	Cc1cc(Cc2ccc(N)cn2)n(C)c1C(=O)c1ccc(Cl)cc1 [compound 333, {2-[5-(4-Chlorobenzoyl)-1,4-dimethyl-1H-pyrrol-2-ylmethyl]pyridin-5-yl}amine]

— US5952368A, “5-aroylpyrrol-2-ylmethylarene derivatives” (Syntex (U.S.A.) Inc., priority 1997, dated 1999)
